Experimental data reported in patent publication US8778413B2, “Dosing regimens and methods of treatment using carbon monoxide” (Ikaria, Inc., priority 2010, dated 2014).
Entries after “also recorded” stand apart in the source; their conditions may differ. Read-outs that look alike come from different tables or passages of the source. Marks after values point to notes of the source that are not given here.

Key:
[1] = format: in vivo, human; conditions: for CL/F, based on net COHb: intra-operative
Description: (§1) Study subjects receive either (i) 12-48 hours post-operatively following renal transplant, a single dose of placebo (i.e., O2 30% in nitrogen) or carbon monoxide (Covox 12 mg/L) at 0.7 mg/kg or 2 mg/kg via inhalation for a time period of 1 hour, or (ii) intra-operatively during renal transplant surgery (at the time of re-anastomosis), a dose of placebo (i.e., O2 30% in nitrogen), 2 mg/kg or 3 mg/kg carbon monoxide via inhalation for a time period of 1 hour.
COHb exposure is measured using conventional methods. For example, COHb exposure can be ascertained by measuring the amount present in venous blood using a device known as a CO-OXI meter. For both post- and intra-operative dosing regimens, dose-dependency of COHb Cmax and AUC is evaluated, the results of which are shown graphically in FIGS. 1A and 1B.

[2] = tested on: renal function of renal transplant recipients; test: Transplanted organ (renal) function: serum creatinine and calculated GFR; format: in vivo, human
Description: as §1
Organ function is assessed in subjects using pharmacodynamic markers representing renal functions. In particular, serum creatinine (SCr) levels are measured (using conventional methods) and glomerular filtration rate (GFR) is calculated via MDRD (GFR (mL/min/1.73 m2)=175×(Scr)−1.154× (Age)−0.203×(0.742 if female)×(1.212 if African American); as described by Levey et al., “Chronic Kidney Disease Epidemiology Collaboration. Using standardized serum creatinine values in the modification of diet in renal disease study equation for estimating glomerular filtration rate,” Ann Intern Med, 145(4):247-254 (2006)).

[3] = water at 0° C.; cited from earlier work
[4] = tested on: renal transplant recipients; test: Neurocognitive functions (digit vigilance speed, numeric working memory accuracy, picture recognition); format: in vivo, human; conditions: up to 3 mg/kg inhaled 1 hour, up to 24 weeks post-treatment
Description: FIG. 5, FIG. 6 and FIG. 7 illustrate the impact of carbon monoxide treatment on neurocognitive functions over 6 months in subjects receiving kidney transplants following inhalation of placebo, 0.7 mg/kg, 2 mg/kg or 3 mg/kg carbon monoxide through the evaluation of individual digit vigilance speed (FIG. 5), numeric working memory accuracy (FIG. 6) and picture recognition (FIG. 7). The CO doses were administered either 12-48 hours post-operatively following renal transplant (placebo, 0.7 mg/kg or 2 mg/kg) or intra-operatively during renal transplant surgery (placebo, 2 mg/kg or 3 mg/kg). Visit #1: Screening; Visit #4: Day 0; Visit #6: Day 1; Visit #14-16: Day 28; Visit #17-18: Follow-up Weeks 16-24. The open symbols reflect individual observations, the thin lines reflect individual trends and thick lines reflect the average trend based on linear regression. […]
All renal transplant recipients receiving carbon monoxide up to 3 mg/kg carbon monoxide (both intra-operatively and post-operatively dosed) are evaluated for safety. […] As presented herein, the relationship between carbon monoxide exposure (COHb) and cardiovascular function (i.e., QTc) at 8 hours post-treatment of subjects receiving inhaled carbon monoxide or placebo (FIG. 4) is assessed via a pharmacokinetic-pharmacodynamic (PKPD) approach. […]

[5] = tested on: renal transplant recipients; test: Safety of carbon monoxide dosing regimens (AEs, ECG, QTc); format: in vivo, human
Description: as §1
All renal transplant recipients receiving carbon monoxide up to 3 mg/kg carbon monoxide (both intra-operatively and post-operatively dosed) are evaluated for safety. […] The most sensitive organs to carbon monoxide poisoning are heart and brain. As presented herein, the relationship between carbon monoxide exposure (COHb) and cardiovascular function (i.e., QTc) at 8 hours post-treatment of subjects receiving inhaled carbon monoxide or placebo (FIG. 4) is assessed via a pharmacokinetic-pharmacodynamic (PKPD) approach. Similarly, as presented herein, the relationship between subjects receiving one of various inhaled carbon monoxide doses or placebo and key neurocognitive functions (i.e., individual digit vigilance speed (FIG. 5), numeric working memory accuracy (FIG. 6) and picture recognition (FIG. 7)) up to 24 weeks post-treatment is assessed via a pharmacokinetic-pharmacodynamic (PKPD) approach.

[C-]#[O+] [carbon monoxide]
CL/F, based on net COHb ([1]; 2.0 mg/kg, mean (n=6)): 0.0474 mg/kg/(% * h) | CL/F, based on net COHb ([1]; 3.0 mg/kg, mean (n=5)): 0.0549 mg/kg/(% * h) | dose-dependency of COHb Cmax and AUC (% COHb/Hb) ([1]; post- and intra-operative regimens, 0.7-3 mg/kg, FIGS. 1A and 1B): increased with an increase in the dose of inhaled carbon monoxide in an approximately proportional manner | renal function (GFR and Scr) ([2]; given 12-48 hours after the surgery, 0.7 or 2 mg/kg): does not improve renal function | renal function (GFR and Scr) ([2]; given during surgery (intra-operatively), 2 or 3 mg/kg): improves renal function in a dose-dependent manner | calculated GFR on Day 1 and Day 2 versus COHb concentration ([2]; intra-operatively treated subjects, FIG. 2 left panel): increased COHb is related to improved renal function (GFR) | serum creatinine level on Day 2 versus COHb concentration ([2]; intra-operatively treated subjects, FIG. 3 left panel): increased COHb is related to improved renal function (decreased serum creatinine) | calculated GFR on Day 1 and Day 2 versus COHb concentration ([2]; post-operatively treated subjects, FIG. 2 right panel): increased COHb is not related to the improvement of GFR | serum creatinine level on Day 2 versus COHb concentration ([2]; post-operatively treated subjects, FIG. 3 right panel): increased COHb did not improve the renal function (increased serum creatinine) | saturation point [3]: about 0.0044 g CO/100 g medium | impact on neurocognitive functions [4]: does not have negative impact on neurocognitive functions; also recorded: unlikely to cause QT prolongation and affect neurocognitive functions | impact on neurocognitive functions ([4]; listed as CO): does not show any negative impact on neurocognitive functions | QT prolongation (QTc change from baseline versus COHb) ([5]; 8 hours after inhalation, up to 3 mg/kg for 1 hour): does not have an effect on QT prolongation; also recorded: unlikely to cause QT prolongation | tolerability ([5]; all dose levels up to 3 mg/kg, intra- and post-operatively dosed): well tolerated | ECG changes ([5]; up to 3 mg/kg): no ECG changes observed on heart rate, PR interval, QRS duration or QTcF duration | new morphological changes or new infarction potentials ([5]; up to 3 mg/kg): no evidence observed on new morphological changes or new infarction potentials | incidence of cardiovascular and neurological AEs ([5]; up to 3 mg/kg, versus placebo): comparable between CO and placebo treated subjects
